# Laboratory results published in patent US9714243B2, “4-pyridinonetriazine derivatives as HIV integrase inhibitors” (Merck Sharp & Dohme Corp., priority 2012, dated 2017).
# Like-named read-outs stand apart in the source and are kept apart here.
# Test system: HIV-1 (NL4-3 strain)
# Assay: Assay for inhibition of HIV replication (ViKinG; infected MT4-GFP cells)
# Format: cell-based
# Method in brief: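 MT4-GFP cells infected with NL4-3 at low MOI for 24 h, washed, then exposed to serially diluted compound (0.4% DMSO) in RPMI. GFP+ cells counted at 24 and 48 h; R0 = 48 h/24 h ratio, inhibition normalised to DMSO and triple-drug controls, IC50 from 4-parameter fit.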
# [1] = MT4-GFP cells infected with HIV-1 NL4-3, 10% normal human serum (NHS), read-out: ViKinG IP (nM) with 10% NHS
# [2] = MT4-GFP cells infected with HIV-1 NL4-3, 100% normal human serum (NHS), read-out: ViKinG IP (nM) with 100% NHS
# [3] = MT4-GFP cells infected with HIV-1 NL4-3, 0% normal human serum (NHS), read-out: ViKinG IP (nM) with 0% NHS
# [4] = Human immunodeficiency virus 1, NL43, MT4-GFP cells infected with HIV-1 NL4-3, 100% normal human serum (NHS), read-out: ViKinG IP (nM) with 100% NHS
# [5] = Human immunodeficiency virus 1, NL43, MT4-GFP cells infected with HIV-1 NL4-3, 10% normal human serum (NHS), read-out: ViKinG IP (nM) with 10% NHS
# [6] = Human immunodeficiency virus 1, NL43, MT4-GFP cells infected with HIV-1 NL4-3, 0% normal human serum (NHS), read-out: ViKinG IP (nM) with 0% NHS
SMILES,IC50 [1] [nM],IC50 [3] [nM],IC50 [4] [nM],IC50 [6] [nM],also measured
CCN1C(=O)c2c(O)c(=O)c(-c3nnc(Cc4ccc(F)cc4)s3)cn2N(C)C12CCC(CC(=O)N(C)C)CC2 (stereo not shown) [Compound 98],32.2,,,,IC50 [2]: 168 nM
CN1C(=O)c2c(O)c(=O)c(-c3nnc(Cc4ccc(F)cc4F)s3)cn2N(C)C12CCC(C(=O)NCc1cncs1)CC2 (stereo not shown) [Compound 134],122,20.9,,,
CCc1noc(C2CCC3(CC2)N(CC)C(=O)c2c(O)c(=O)c(-c4nnc(Cc5ccc(F)cc5F)s4)cn2N3C)n1 (stereo not shown) [Compound 58],,14.1,,,IC50 [2]: 228 nM
CCN1C(=O)c2c(O)c(=O)c(-c3nnc(Cc4ccc(F)cc4)s3)cn2N(C)C12CCC(C(=O)N(C)C)CC2 (stereo not shown) [Compound 94],9.83,,130,,
CN1C2C(O)CCCN2C(=O)c2c(O)c(=O)c(-c3nnc(Cc4ccc(F)cc4F)s3)cn21 (stereo not shown) [Compound 166],,9,,,IC50 [2]: 162 nM
CN1C(=O)c2c(O)c(=O)c(-c3nnc(Cc4ccc(F)cc4F)s3)cn2N(C)C12CCC(C)(CO)CC2 (stereo not shown) [Compound 86],94.3,6.34,,,IC50 [2]: 185 nM
CCN1C(=O)c2c(O)c(=O)c(-c3nnc(Cc4ccc(F)cc4F)s3)cn2N(C)C12CCC(CC(=O)OC)C2 (stereo not shown) [Compound 20],,,218,,IC50 [5]: 28.7 nM
C[C@@H]1CC2(CC[C@@H]1C(=O)N(C)C)N(C)C(=O)c1c(O)c(=O)c(-c3nnc(Cc4ccc(F)cc4)s3)cn1N2C (stereo partly shown) [Compound 150],,,221,13.3,IC50 [5]: 18.9 nM
CN1C2CCCCN2C(=O)c2c(O)c(=O)c(-c3nnc(Cc4ccc(F)cc4F)s3)cn21 (stereo not shown) [Compound 157],,,613,,IC50 [5]: 14.2 nM
CCN1C(=O)c2c(O)c(=O)c(-c3nnc(Cc4ccc(F)cc4)s3)cn2N(C)C12CCC(C(=O)N(C)C)CC2 (stereo not shown) [Compound 93],255,,,,
CC(=O)NC1CCC2(CC1)N(C)C(=O)c1c(O)c(=O)c(-c3nnc(Cc4ccc(F)cc4F)s3)cn1N2C (stereo not shown) [Compound 82],,,2560,63.7,
CN1C(=O)c2c(O)c(=O)c(-c3nnc(Cc4ccc(F)cc4F)s3)cn2N(C)C12CCC(C(N)=O)CC2 (stereo not shown) [Compound 107],46.4,4.96,,,
CN1C(=O)c2c(O)c(=O)c(-c3nnc(Cc4ccc(F)cc4F)s3)cn2N(C)C12CCC1C(=O)NC(=O)C1C2 (stereo not shown) [Compound 81],,37.5,,,IC50 [2]: 1610 nM
COCCN1C(=O)c2c(O)c(=O)c(C(=O)NCc3ccc(F)cc3F)cn2[C@@H](C)C12CC2 [Compound 183],,,188,3.17,
CN1C(=O)c2c(O)c(=O)c(-c3cn(Cc4ccc(F)cc4F)nn3)cn2CC12CCC2 [Compound 215],,,76.1,9.93,
CCN1C(=O)c2c(O)c(=O)c(-c3nnc(Cc4ccc(F)cc4F)s3)cn2N(C)C12C[C@H]1CC(CC(=O)OC)C[C@H]1C2 (stereo partly shown) [Compound 36],,,,,IC50 [5]: 52.6 nM
COc1cc(CNC(=O)C2CCC3(CC2)N(C)C(=O)c2c(O)c(=O)c(-c4nnc(Cc5ccc(F)cc5F)s4)cn2N3C)on1 (stereo not shown) [Compound 136],151,30.8,,,
CN1C(=O)c2c(O)c(=O)c(-c3nnc(Cc4ccc(F)cc4F)s3)cn2N(C)C12CCC1C(=O)NC(=O)C1C2 (stereo not shown) [Compound 80],,,915,50.1,
CCN1C(=O)c2c(O)c(=O)c(-c3nnc(Cc4ccc(F)cc4F)s3)cn2N(C)C12CCC(Oc1ccccc1)CC2 (stereo not shown) [Compound 54],,82.8,,,IC50 [2]: 1470 nM
CN1C(=O)c2c(O)c(=O)c(-c3nnc(Cc4ccc(F)cc4F)s3)cn2N(C)C12CCC(C(=O)N1CCC(F)(F)C1)CC2 (stereo not shown) [Compound 117],42.7,,,20.4,
CCCOC1CCC2(CC1)N(CC)C(=O)c1c(O)c(=O)c(-c3nnc(Cc4ccc(F)cc4F)s3)cn1N2C (stereo not shown) [Compound 61],,23.8,,,IC50 [2]: 221 nM
CCN1C(=O)c2c(O)c(=O)c(-c3nnc(Cc4ccc(F)cc4F)s3)cn2N(C)C12CCC1(CCC(=O)N1)CC2 (stereo not shown) [Compound 22],,,,,IC50 [5]: 292 nM
CCN1C(=O)c2c(O)c(=O)c(-c3nnc(Cc4ccc(F)cc4F)s3)cn2N(C)C12CCC(c1nc(C)no1)CC2 (stereo not shown) [Compound 46],,,139,6.78,
CN1C(=O)c2c(O)c(=O)c(-c3nnc(Cc4ccc(F)cc4F)s3)cn2N(C)C12CC[C@@H](C(=O)NC1CC1)C(C)(C)C2 (stereo partly shown) [Compound 142],,,558,5.63,
CN1C2COCCN2C(=O)c2c(O)c(=O)c(-c3nnc(Cc4ccc(F)cc4F)s3)cn21 (racemic) [Compound 160],,,298,,IC50 [5]: 22.6 nM
